Measurements reported in article PMC7480010 (Journal of biomolecular screening, 2015).

Tested on: MDA-MB-231
Format: cell-based, human
Details: anisomycin stimulation

For Cc1ccc(-n2nc(C(C)(C)C)cc2NC(=O)Nc2ccc(OCCN3CCOCC3)c3ccccc23)cc1 [BIRB-796], the “level of phosphorylated/activated p38” value was “reduces in the overall level of phosphorylated p38” and the “phosphorylation status of SAPK/JNK” value was “reduces the phosphorylation of JNK”.
